Laboratory results from patent EP4775036A2, “SYNERGISTIC FORMULATIONS FOR CONTROL AND REPELLENCY OF BITING ARTHROPODS” (Bedoukian Research, Inc., priority 2020, dated 2022).
Values joined by “and” are separate entries in the source; they are usually repeats but may differ in a detail not shown here. Identical values can stand only once.

Key:
[1] = system: Aedes aegypti mosquitoes; experiment: Arm in cage testing (Modified WHO - Nigel Hill protocol), dose response curves on human subjects, LDP line analysis; type: in vivo; details: for Index: ED50 comparison of LDP lines, lowest ED50 = 100; for RR: ED50 relative to the line with the lowest ED50
Description: A Modified WHO - Nigel Hill protocol was used for Dose Response curve generation. Three concurrent repetitions were conducted with 4 subjects (2 male, 2 female). Approximately 60 non blood-fed, female Aedes aegypti mosquitoes were placed in a 12"X12"X12" (28316.85 cm^3) plexi and screen cage.
Arms were inserted into the first cage for 30 seconds, with number of landings (with intent to bite) recorded at the end of the time interval. The same procedure was used for the 2nd and 3rd cage in succession. Control arm was inserted first, followed by the opposite arm treated with ethanol only (as a treatment control). The 'treatment arm' is then treated with dose 1 and inserted, then dose 2, dose 3, and so on. After complete protection was achieved, control arm was reinserted to verify continued activity.
Percent repellency was calculated by utilizing the formula [{(C-T)/C}*100]. Where C = the number of mosquitoes landing with intent to bite on the ethanol only treated arm, and T = the number of mosquitoes landing with intent to bite on the 'repellent' treated arm. LDP line® software (Bakr, E 2007) was used to determine ED50 (effective dose to repel 50%) and compare materials.
Following the Definition of Synergy (the interaction or cooperation of two or more organizations, substances, or other agents to produce a combined effect greater than the sum of their separate effects), an 'additive measure' was used to determine synergy in the laboratory testing, as well as in the human testing. […] Significance was determined by the use of 95% confidence intervals.
For human testing, the LDP Line software was used to determine "additive repellency" differences.

[2] = system: Aedes aegypti; experiment: Laboratory screening, modified K & D chamber (Gupta Box), treated blood-filled membrane wells; type: in vivo; details: adjusted, relative to control
Description: A modified K & D chamber or "Gupta Box" was used to screen 4 compounds plus an untreated control, simultaneously. Five replicates of 250 adult female mosquitoes each were placed in clear plastic cages (Gupta boxes) with access to five warmed, blood-filled, membrane-covered wells. The mosquitoes used were Aedes aegypti. Membranes were treated with repellent dilutions or diluent only. Five replicates were tested, rotating positions within the chamber. Each replicate used a fresh batch of mosquitoes, blood and treated membranes. The number of mosquitoes probing each well was recorded at two minute intervals for 20 minutes. The total numbers of probes on each well were tallied at the end of the observation period and the average percentage repellency relative to the control was calculated for each formulation. To compare formulations from different tests, the control probes were adjusted to 100 for each test and the formula then applied to each formulation to adjust accordingly. For laboratory testing, additive repellency was determined by adding the adjusted percent repellency for each dose used in the combination treatment. This "Expected additive repellency" was then compared to the "actual repellency" seen when the combination was tested in the Gupta box.

[3] = DEET Combinations, calculations based on DEET dose
[4] = human arm in cage, DEET dose, DEET alone or in the combination (calculations based on DEET dosage)
[5] = 0.5% of the compound alone on membrane
[6] = 1% of the compound alone on membrane
[7] = human arm in cage, compound alone
[8] = PMD Combinations, calculations based on PMD dose
[9] = human arm in cage, PMD dose, PMD alone or in the combination (calculations based on PMD dosage)

Q: For `CCN(CC)C(=O)c1cccc(C)c1` [DEET, N,N-Diethyl-m-toluamide], which “ED90 (%AI)” value [1, 3] is on record?
A: Its value is 1.443 %AI.

Q: What about the Index [1, 3] of the same molecule?
A: The Index was 10.32.

Q: And the RR [1, 3]?
A: Its RR is 9.69.

Q: What about the “% Repelled” value ([1]; DEET alone at Dose 0.0351 % Active (its ED25)) of the same molecule?
A: The value was 25%.

Q: And the “ED25, Dose (% DEET)” value [1, 4]?
A: The value was 0.035 % DEET and 0.0351 % DEET.

Q: And the “ED50, Dose (% DEET)” value [1, 4]?
A: The value was 0.1263 % DEET and 0.126 % DEET.

Q: What about the “ED75, Dose (% DEET)” value [1, 4] of the same molecule?
A: Its value is 0.4552 % DEET.

Q: And the “ED90, Dose (% DEET)” value [1, 4]?
A: Its value is 1.4431 % DEET.

Q: And the “ED95, Dose (% DEET)” value [1, 4]?
A: The value was 2.8783 % DEET.

Q: What about the percent repellency [2, 5] of the same molecule?
A: The percent repellency was 29.55%.

Q: What about the percent repellency [2, 6] of the same molecule?
A: Its percent repellency is 52.9%.

Q: Which “% Repelled” value ([1]; Gamma Dodecalactone alone at Dose 0.4177 % Active (its ED25)) does the source give for `CCCCCCCCC1CCC(=O)O1` (centres unmarked) [Gamma Dodecalactone, gamma-dodecalactone] here?
A: The value was 25%.

Q: And the “ED25, Dose (% γ Dodecalactone)” value [1, 7]?
A: Its value is 0.4177 % γ Dodecalactone.

Q: And the “ED50, Dose (% γ Dodecalactone)” value [1, 7]?
A: Its value is 1.8022 % γ Dodecalactone.

Q: And the “ED75, Dose (% γ Dodecalactone)” value [1, 7]?
A: The value was 7.7764 % γ Dodecalactone.

Q: And the “ED90, Dose (% γ Dodecalactone)” value [1, 7]?
A: The value was 28.994 % γ Dodecalactone.

Q: What about the “ED95, Dose (% γ Dodecalactone)” value [1, 7] of the same molecule?
A: The value was 63.726 % γ Dodecalactone.

Q: What does the source list for `CC(=O)CCC=C(C)CCC=C(C)C` [Geranyl Acetone, 6,10-dimethyl-5,9-undecadien-2-one]?
A: % Repelled ([1]; Geranyl Acetone alone at Dose 0.736 % Active (its ED25)): 25%; ED25, Dose (% Geranyl Acetone) [1, 7]: 0.736 % Geranyl Acetone; ED50, Dose (% Geranyl Acetone) [1, 7]: 2.831 % Geranyl Acetone; ED75, Dose (% Geranyl Acetone) [1, 7]: 10.889 % Geranyl Acetone; ED90, Dose (% Geranyl Acetone) [1, 7]: 36.608 % Geranyl Acetone; ED95, Dose (% Geranyl Acetone) [1, 7]: 75.631 % Geranyl Acetone; percent repellency [2, 5]: 26.7% and 26.69%

Q: What does the source list for `CC(O)C(=O)O` (centres unmarked) [Lactic Acid, Lactic acid]?
A: % Repelled ([1]; Lactic Acid alone at Dose 2.7938 % Active (its ED25)): 25%; ED25, Dose (% Lactic Acid) [1, 7]: 2.794 % Lactic Acid; ED50, Dose (% Lactic Acid) [1, 7]: 6.143 % Lactic Acid; ED75, Dose (% Lactic Acid) [1, 7]: 13.51 % Lactic Acid; ED90, Dose (% Lactic Acid) [1, 7]: 27.45 % Lactic Acid; ED95, Dose (% Lactic Acid) [1, 7]: 41.96 % Lactic Acid

Q: What does the source list for `CC1CCC(C(C)(C)O)C(O)C1` (centres unmarked) [PMD, para-menthane-3,8-diol]?
A: ED90 (%AI) [1, 8]: 3.846 %AI; Index [1, 8]: 4.36; RR [1, 8]: 22.94; % Repelled ([1]; PMD alone at Dose 0.1275 % Active (its ED25)): 25%; ED25, Dose (% PMD) [1, 9]: 0.128 % PMD and 0.1275 % PMD; ED50, Dose (% PMD) [1, 9]: 0.4128 % PMD and 0.413 % PMD; ED75, Dose (% PMD) [1, 9]: 1.3362 % PMD; ED90, Dose (% PMD) [1, 9]: 3.8464 % PMD; ED95, Dose (% PMD) [1, 9]: 7.2415 % PMD; percent repellency [2, 6]: 26.35% and 26.4%; percent repellency ([2]; 1.5% of the compound alone on membrane): 34.6%
